Reference: patent US20100150999A1, “THERAPY OF CANCER BASED ON TARGETING ADAPTIVE, INNATE AND/OR […] OF THE IMMUNE RESPONSE” (priority 2006, published 2010)

How the values were obtained:
[1] = tested on: TC-1 cells expressing HPV16-E6 and HPV16-E7; test: TC-1 tumor model in C57BL/6 mice (tumor growth, eradication, survival); type: in vivo; settings: for Effect on tumor growth: large TC-1 tumors, treated day 24/25
Procedure: TC-1 cells expressing HPV16-E6 and HPV16-E7 proteins derived from primary mouse lung epithelial cells were obtained from the American Type Culture Collection (LGC Promochem, Molsheim, France) (14). EL4-E7 cells, a mouse lymphoma expressing HPV16-E7 (15). Cells were maintained in RPMI 1640 with GlutaMAX supplemented with 10% heat-inactivated fetal calf serum, 100 units/ml penicillin, 100 μg/ml streptomycin, 0.4 mg/ml geneticin and 5×10^−5 mol/l 2-mercaptoethanol (Life Technologies, Cergy-Pontoise, France).
Thirty μg of CpG ODNs or pU were diluted in 50 μl of Optimen medium (Gibco, Grand Island, N.Y., USA) and mixed with 60 μg of DOTAP (Roche, Mannheim, Germany) diluted in 100 μl of Optimen. The rest of the reagents were diluted in PBS before injection. Cyclophosphamide (CTX) (Sigma, Steinheim, Germany) and doxorubicin (DOX) (Calbiochem, La Jolla, Calif., USA) were diluted respectively in PBS and in sterile water before injection. The different antigenic formulations and adjuvants were injected simultaneously except chemotherapeutic agents that were given 24 h before vaccine. Intravenous administrations were performed by retroorbital injection in a volume of 200 μl, intratumoral administrations were done by injection in a volume of 50 μl and subcutaneous administration were performed in 200 μl.
Tumor growth data were analyzed by non-linear mixed effect models using Monolix software (http://www.math.u-psud.fr/˜lavielle/monolix/). Mean diameters of tumors over time were fitted using the model described in (17) and treatments were compared using the Likelihood Ratio test. Kaplan-Meier plots were used to analyzed survival, and a log rank test was used to examine statistical significance of differences in the survival curves using Prism software (GraphPad Software, Inc. San Diego, USA). Data from in vivo CTL and tetramer staining were compared by ANOVA followed by Dunnett posttest. p values less than 0.05 were considered to be statistically significant.

[2] = tested on: TC-1 cells; settings: RAG1-/- mice, 2.5 mg CTX i.p. day 24
Procedure: Specific pathogen-free 5-week-old female C57BL/6 mice were purchased from Charles River (L'Arbresle, France) and were kept in the Pasteur Institute animal facilities under pathogen-free conditions with water and food ad libitum. C57BL/6-RAG1^−/− mice were obtained from the Jackson Laboratory, USA. Experiments involving animals were conducted according to the institutional guidelines for animal care.
Tumor cells lines (5×10^5 TC-1 cells or 4×10^6 EL4-E7 cells) were inoculated into the shaved left back of C57BL/6 mice in 200 μl volume of PBS.

[3] = tested on: regulatory T cells, myeloid cells, NK cells, tumor-specific CD8+ T cells; test: Flow cytometric analysis of immune cells in spleen, draining lymph nodes and tumor after treatment; type: in vivo, mice
Procedure: FIG. 9. Changes in immune cells after tritherapy on day 25. […] Groups of mice were sacrificed before treatment (day 0), 24 hour after CTX alone (day 1) or on days 4, 7 or 11 after tritherapy administration. Spleen, tumor draining lymph nodes and tumor were excised, ground to prepare the cell suspensions, stained and analyzed by flow cytometry. Pooled data of two experiments are shown (n=4-6 mice). Bars represent mean values and the error bars correspond to standard error of the mean. *<0.05 **<0.01. A) Percentage of CD4^+ cells that express CD25 and FoxP3. B) Percentage of CD4^+ cells that are CD25^− and FoxP3^+. C) Percentage of CD4^+ cells that express FoxP3. D) Percentage of CD8^+ cells that are tetramer^+ and CD44^+. E) Percentage of CD11c+ cells. F) Percentage of CD11 b^+ cells. G) Percentage of GR1+ cells. H) Percentage of CD11 b^+ GR1+ positive cells.
FIG. 11. Phenotype of myeloid cells induced by tritherapy and by tumor growth. […] Tritherapy treated mice received on day 24, 2.5 mg CTX i.p and 24 h later, 50 μg CyaA-E7 and 30 μg CpG-B/DOTAP. PBS treated mice received 200 μl of PBS on day 25. […] Spleens were excised, ground to prepare the cell suspensions, stained and analyzed by flow cytometry. […]
FACScalibur (Becton Dickinson, Franklin Lakes, N.J., USA) was used for flow cytometry and events were analyzed with CELLQuest software (Becton Dickinson, Franklin Lakes, N.J., USA).

Molecule	Effect on tumor growth [1]	Effect on tumor growth ([1]; listed as cyclophosphamide)	Induction of tumor regression / complete eradication ([1]; without CyaA-E7, treated day 24/25)	Tumor growth delay [2]	Percentage of CD25+FoxP3+/CD4+ in tumor-infiltrated lymphocytes ([3]; four days after administration, from around 50%)	Lymphodepletion ([3]; spleen and lymph node, TC-1 tumor-bearing mice)
O=P1(N(CCCl)CCCl)NCCCO1 (stereo not shown) [CTX, Cyclophosphamide]	significantly delayed tumor growth	transiently control tumor growth	not able to induce the complete eradication	not observed	below 30%	transient lymphodepletion in spleen and lymph node that reverted by day 7
polyinosinic-polycytidylic acid [PIC]	none of these TLR ligands administered alone had any effect on the tumor growth	–	–	–	–	–
